Results taken from publication PMC8185074, “Anchor extension: a structure-guided approach to design cyclic peptides targeting enzyme active sites” (Nature Communications, 2021).
Peptide text beside a SMILES is read from it.

Experiments:
Assay type in all cases: biochemical
HDAC1 = target: T1, HDAC1 (Homo sapiens, UniProt Q13547); assay: HDAC1 inhibition, full IC50 measurement (Reaction Biology; fluorogenic p53 peptide RHKK(Ac)AMC); details: t1/t2 replicates
T1 construct: purchased Reaction Biology Corporation (assay run by the CRO)
T1 sequence (Q13547 whole entry): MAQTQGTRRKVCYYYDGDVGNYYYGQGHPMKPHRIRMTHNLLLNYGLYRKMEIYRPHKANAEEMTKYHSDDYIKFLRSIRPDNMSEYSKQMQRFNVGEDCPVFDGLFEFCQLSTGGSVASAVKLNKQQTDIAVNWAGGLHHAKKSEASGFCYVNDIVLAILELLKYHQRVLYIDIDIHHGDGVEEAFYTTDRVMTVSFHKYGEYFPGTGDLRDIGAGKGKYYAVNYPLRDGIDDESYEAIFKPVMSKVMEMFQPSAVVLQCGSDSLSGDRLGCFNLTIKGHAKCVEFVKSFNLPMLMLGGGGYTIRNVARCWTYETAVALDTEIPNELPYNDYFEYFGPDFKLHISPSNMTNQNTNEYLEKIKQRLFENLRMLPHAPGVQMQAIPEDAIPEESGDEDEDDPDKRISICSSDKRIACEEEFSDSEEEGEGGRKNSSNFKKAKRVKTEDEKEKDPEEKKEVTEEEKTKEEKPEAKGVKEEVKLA
How it was run: (§1)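 Reaction: enzyme plus acoustically dispensed peptide inhibitor, 50 μM RHKK(Ac)AMC substrate, pH 8.0 Tris buffer with BSA and 1% DMSO, 1 h, 30 °C. Duplicates averaged.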

HDAC6 = target: T2, HDAC6 (Homo sapiens, UniProt Q9UBN7); assay: HDAC6 inhibition, full IC50 measurement (Reaction Biology; fluorogenic p53 peptide RHKK(Ac)AMC)
T2 construct: purchased Reaction Biology Corporation (assay run by the CRO)
T2 sequence (Q9UBN7 1-1215): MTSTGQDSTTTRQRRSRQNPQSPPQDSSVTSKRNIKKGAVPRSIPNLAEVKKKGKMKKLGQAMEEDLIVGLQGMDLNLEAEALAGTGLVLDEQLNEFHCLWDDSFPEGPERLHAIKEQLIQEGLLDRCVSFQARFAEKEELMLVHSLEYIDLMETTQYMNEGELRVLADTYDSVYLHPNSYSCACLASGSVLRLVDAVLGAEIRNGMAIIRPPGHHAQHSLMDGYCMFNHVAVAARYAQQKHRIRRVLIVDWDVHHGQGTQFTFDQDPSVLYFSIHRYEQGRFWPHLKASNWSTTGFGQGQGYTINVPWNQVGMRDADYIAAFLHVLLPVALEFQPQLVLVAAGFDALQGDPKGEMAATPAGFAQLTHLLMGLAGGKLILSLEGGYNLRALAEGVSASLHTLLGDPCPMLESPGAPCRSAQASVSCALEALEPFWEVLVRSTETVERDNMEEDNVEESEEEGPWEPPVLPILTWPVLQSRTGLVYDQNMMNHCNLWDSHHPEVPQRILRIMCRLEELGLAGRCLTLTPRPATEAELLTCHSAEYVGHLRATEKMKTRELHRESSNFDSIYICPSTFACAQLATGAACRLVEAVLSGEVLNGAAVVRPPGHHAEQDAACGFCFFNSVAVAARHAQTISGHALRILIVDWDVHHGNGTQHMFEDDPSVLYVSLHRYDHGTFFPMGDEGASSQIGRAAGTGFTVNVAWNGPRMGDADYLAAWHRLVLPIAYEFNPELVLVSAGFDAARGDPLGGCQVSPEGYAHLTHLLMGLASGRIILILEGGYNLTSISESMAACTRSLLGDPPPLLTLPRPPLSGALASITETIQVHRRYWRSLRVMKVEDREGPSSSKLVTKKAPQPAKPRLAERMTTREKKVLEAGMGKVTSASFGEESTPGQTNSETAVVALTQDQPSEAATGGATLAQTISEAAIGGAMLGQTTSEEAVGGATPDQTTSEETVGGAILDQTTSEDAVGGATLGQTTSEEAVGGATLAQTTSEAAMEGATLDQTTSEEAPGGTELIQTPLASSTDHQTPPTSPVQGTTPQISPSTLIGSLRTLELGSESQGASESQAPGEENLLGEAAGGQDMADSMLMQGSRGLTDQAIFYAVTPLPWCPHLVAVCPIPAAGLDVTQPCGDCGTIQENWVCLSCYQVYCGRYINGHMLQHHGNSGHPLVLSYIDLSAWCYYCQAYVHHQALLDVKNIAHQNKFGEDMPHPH
How it was run: as §1

HDAC8 = target: T3, HDAC8 (Homo sapiens, UniProt Q9BY41); assay: HDAC8 inhibition, full IC50 measurement (Reaction Biology; fluorogenic p53 peptide RHKK(Ac)AMC); details: t1/t2 replicates
T3 construct: purchased Reaction Biology Corporation (assay run by the CRO)
T3 sequence (Q9BY41 1-377): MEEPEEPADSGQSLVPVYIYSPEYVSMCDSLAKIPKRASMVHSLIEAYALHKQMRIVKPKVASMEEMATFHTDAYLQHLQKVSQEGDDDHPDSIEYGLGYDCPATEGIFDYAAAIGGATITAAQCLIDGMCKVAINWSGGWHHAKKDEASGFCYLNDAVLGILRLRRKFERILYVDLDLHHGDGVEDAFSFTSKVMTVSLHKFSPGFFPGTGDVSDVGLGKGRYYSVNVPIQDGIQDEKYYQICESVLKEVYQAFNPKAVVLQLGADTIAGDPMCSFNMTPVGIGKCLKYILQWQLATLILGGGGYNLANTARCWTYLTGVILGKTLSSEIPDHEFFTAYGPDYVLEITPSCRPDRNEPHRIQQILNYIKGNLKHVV
How it was run: as §1

[1] = peptide conc. 1.00E-05 M, listed as des2.2.0_t1
[2] = peptide conc. 1.00E-05 M, listed as des2.2.0_t2
[3] = peptide conc. 1.11E-06 M, listed as des2.2.0_t1
[4] = peptide conc. 1.11E-06 M, listed as des2.2.0_t2
[5] = peptide conc. 1.23E-07 M, listed as des2.2.0_t1
[6] = peptide conc. 1.23E-07 M, listed as des2.2.0_t2
[7] = peptide conc. 1.37E-08 M, listed as des2.2.0_t1
[8] = peptide conc. 1.37E-08 M, listed as des2.2.0_t2
[9] = peptide conc. 1.52E-09 M, listed as des2.2.0_t1
[10] = peptide conc. 1.52E-09 M, listed as des2.2.0_t2
[11] = peptide conc. 3.33E-06 M, listed as des2.2.0_t1
[12] = peptide conc. 3.33E-06 M, listed as des2.2.0_t2
[13] = peptide conc. 3.70E-07 M, listed as des2.2.0_t1
[14] = peptide conc. 3.70E-07 M, listed as des2.2.0_t2
[15] = peptide conc. 4.12E-08 M, listed as des2.2.0_t1
[16] = peptide conc. 4.12E-08 M, listed as des2.2.0_t2
[17] = peptide conc. 4.57E-09 M, listed as des2.2.0_t1
[18] = peptide conc. 4.57E-09 M, listed as des2.2.0_t2
[19] = peptide conc. 5.08E-10 M, listed as des2.2.0_t1
[20] = peptide conc. 5.08E-10 M, listed as des2.2.0_t2

CC(C)C[C@H]1NC(=O)[C@H](Cc2c[nH]c3ccccc23)NC(=O)[C@H](CCCCCS)NC(=O)[C@@H](Cc2ccc(O)cc2)NC(=O)[C@@H](C(C)C)NC(=O)[C@H](Cc2c[nH]cn2)NC(=O)CNC(=O)CNC(=O)[C@@H](CO)NC1=O [des2.2.0, SHA-Trp-dLeu-dSer-Gly-Gly-His-dVal-dTyr] (HELM PEPTIDE1{G.G.H.[dV].[dY].[O=C([C@H](CCCCCS)N[*:1])[*:2]].W.[dL].[dS]}$PEPTIDE1,PEPTIDE1,1:R1-9:R2$$$V2.0)
HDAC1 activity raw data (signal) (HDAC1; [1]): 393754 | HDAC1 activity raw data (signal) (HDAC1; [2]): 398456 | HDAC1 activity raw data (signal) (HDAC1; [3]): 771529 | HDAC1 activity raw data (signal) (HDAC1; [4]): 714587 | HDAC1 activity raw data (signal) (HDAC1; [5]): 815475 | HDAC1 activity raw data (signal) (HDAC1; [6]): 811874 | HDAC1 activity raw data (signal) (HDAC1; [7]): 879707 | HDAC1 activity raw data (signal) (HDAC1; [8]): 762845 | HDAC1 activity raw data (signal) (HDAC1; [9]): 835131 | HDAC1 activity raw data (signal) (HDAC1; [10]): 788807 | HDAC1 activity raw data (signal) (HDAC1; [11]): 631956 | HDAC1 activity raw data (signal) (HDAC1; [12]): 567009 | HDAC1 activity raw data (signal) (HDAC1; [13]): 777508 | HDAC1 activity raw data (signal) (HDAC1; [14]): 771678 | HDAC1 activity raw data (signal) (HDAC1; [15]): 776525 | HDAC1 activity raw data (signal) (HDAC1; [16]): 821518 | HDAC1 activity raw data (signal) (HDAC1; [17]): 820973 | HDAC1 activity raw data (signal) (HDAC1; [18]): 805068 | HDAC1 activity raw data (signal) (HDAC1; [19]): 825935 | HDAC1 activity raw data (signal) (HDAC1; [20]): 859992 | HDAC6 activity raw data (signal) (HDAC6; Conc. 1.00E-05 M, t1): 16305 | HDAC6 activity raw data (signal) (HDAC6; Conc. 1.00E-05 M, t2): 24452 | HDAC6 activity raw data (signal) (HDAC6; Conc. 1.11E-06 M, t1): 83235 | HDAC6 activity raw data (signal) (HDAC6; Conc. 1.11E-06 M, t2): 80880 | HDAC6 activity raw data (signal) (HDAC6; Conc. 1.23E-07 M, t1): 144589 | HDAC6 activity raw data (signal) (HDAC6; Conc. 1.23E-07 M, t2): 161069 | HDAC6 activity raw data (signal) (HDAC6; Conc. 1.37E-08 M, t1): 141422 | HDAC6 activity raw data (signal) (HDAC6; Conc. 1.37E-08 M, t2): 164330 | HDAC6 activity raw data (signal) (HDAC6; Conc. 1.52E-09 M, t1): 132716 | HDAC6 activity raw data (signal) (HDAC6; Conc. 1.52E-09 M, t2): 164682 | HDAC6 activity raw data (signal) (HDAC6; Conc. 3.33E-06 M, t1): 43855 | HDAC6 activity raw data (signal) (HDAC6; Conc. 3.33E-06 M, t2): 31435 | HDAC6 activity raw data (signal) (HDAC6; Conc. 3.70E-07 M, t1): 128192 | HDAC6 activity raw data (signal) (HDAC6; Conc. 3.70E-07 M, t2): 121991 | HDAC6 activity raw data (signal) (HDAC6; Conc. 4.12E-08 M, t1): 140481 | HDAC6 activity raw data (signal) (HDAC6; Conc. 4.12E-08 M, t2): 177888 | HDAC6 activity raw data (signal) (HDAC6; Conc. 4.57E-09 M, t1): 138901 | HDAC6 activity raw data (signal) (HDAC6; Conc. 4.57E-09 M, t2): 160834 | HDAC6 activity raw data (signal) (HDAC6; Conc. 5.08E-10 M, t1): 128639 | HDAC6 activity raw data (signal) (HDAC6; Conc. 5.08E-10 M, t2): 162548 | HDAC8 activity raw data (signal) (HDAC8; [1]): 365553 | HDAC8 activity raw data (signal) (HDAC8; [2]): 330727 | HDAC8 activity raw data (signal) (HDAC8; [3]): 850929 | HDAC8 activity raw data (signal) (HDAC8; [4]): 824009 | HDAC8 activity raw data (signal) (HDAC8; [5]): 979654 | HDAC8 activity raw data (signal) (HDAC8; [6]): 1006503 | HDAC8 activity raw data (signal) (HDAC8; [7]): 1072008 | HDAC8 activity raw data (signal) (HDAC8; [8]): 1101244 | HDAC8 activity raw data (signal) (HDAC8; [9]): 927307 | HDAC8 activity raw data (signal) (HDAC8; [10]): 984830 | HDAC8 activity raw data (signal) (HDAC8; [11]): 572630 | HDAC8 activity raw data (signal) (HDAC8; [12]): 528648 | HDAC8 activity raw data (signal) (HDAC8; [13]): 865883 | HDAC8 activity raw data (signal) (HDAC8; [14]): 851036 | HDAC8 activity raw data (signal) (HDAC8; [15]): 959123 | HDAC8 activity raw data (signal) (HDAC8; [16]): 1003485 | HDAC8 activity raw data (signal) (HDAC8; [17]): 938538 | HDAC8 activity raw data (signal) (HDAC8; [18]): 927098 | HDAC8 activity raw data (signal) (HDAC8; [19]): 862623 | HDAC8 activity raw data (signal) (HDAC8; [20]): 898356
